Activity calls are given as the source filed them.
What was measured:
[1] = test system: Caov-3 cell line; experiment: Growth inhibition of human Caov3 cells incubated for 48 hrs by MTT assay; format: functional, cell-based
[2] = species on record: Homo sapiens; experiment: Growth inhibition of human ES2 cells incubated for 48 hrs by MTT assay; format: functional
[3] = test system: Caov-4; experiment: Growth inhibition of human Caov4 cells incubated for 48 hrs by MTT assay; format: functional, cell-based

Measured: growth inhibition (GI)

Sc1ccccc1COCc1cn(-c2c(Cl)cc(Cl)cc2Cl)nn1
active: [1] | [2] | [3]

FC(F)(F)c1ccc(-n2cc(COCc3ccccc3S)nn2)cc1
active: [1] | [2] | [3]

Source: ChEMBL document CHEMBL4346695, “Thiophenol-formaldehyde triazole causes apoptosis induction in ovary cancer cells and prevents tumor growth formation in mice model” (2019)
